# Where two headings read alike, the source gives them in different places.
# Key:
# Format in all cases: binding
# [1] = target: T1, HeLa cell extract proteins (Homo sapiens, UniProt O60701)
# T1 construct: endogenous in cells; host or cells: HeLa cell extract
# T1 sequence (O60701 1-494): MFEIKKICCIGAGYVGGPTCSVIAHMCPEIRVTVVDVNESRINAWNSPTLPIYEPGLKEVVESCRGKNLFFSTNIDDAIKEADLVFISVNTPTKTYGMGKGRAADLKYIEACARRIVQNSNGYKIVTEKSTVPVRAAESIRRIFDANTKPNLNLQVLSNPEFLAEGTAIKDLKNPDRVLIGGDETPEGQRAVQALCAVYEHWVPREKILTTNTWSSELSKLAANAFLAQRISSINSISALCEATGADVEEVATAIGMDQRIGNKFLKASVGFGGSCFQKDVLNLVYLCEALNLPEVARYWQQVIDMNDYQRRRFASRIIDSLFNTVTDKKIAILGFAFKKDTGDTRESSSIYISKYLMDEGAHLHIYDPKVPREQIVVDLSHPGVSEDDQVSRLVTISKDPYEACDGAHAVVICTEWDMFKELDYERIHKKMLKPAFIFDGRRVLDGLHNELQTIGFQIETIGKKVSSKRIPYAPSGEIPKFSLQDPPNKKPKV
# [2] = target: T2, HeLa cell extract proteins (Homo sapiens, UniProt O95456)
# T2 construct: endogenous in cells; host or cells: HeLa cell extract
# T2 sequence (O95456 1-288): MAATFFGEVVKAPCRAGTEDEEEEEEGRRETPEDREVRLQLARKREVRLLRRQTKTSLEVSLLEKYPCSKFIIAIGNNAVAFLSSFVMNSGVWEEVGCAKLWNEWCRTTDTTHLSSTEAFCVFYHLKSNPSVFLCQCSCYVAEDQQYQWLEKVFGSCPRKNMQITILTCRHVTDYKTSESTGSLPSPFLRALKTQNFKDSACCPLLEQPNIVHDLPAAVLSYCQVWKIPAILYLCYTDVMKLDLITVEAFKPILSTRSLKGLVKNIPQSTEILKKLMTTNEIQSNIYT
# [3] = target: T3, HeLa cell extract proteins (Homo sapiens, UniProt P35080)
# T3 construct: endogenous in cells; host or cells: HeLa cell extract
# T3 sequence (P35080 1-140): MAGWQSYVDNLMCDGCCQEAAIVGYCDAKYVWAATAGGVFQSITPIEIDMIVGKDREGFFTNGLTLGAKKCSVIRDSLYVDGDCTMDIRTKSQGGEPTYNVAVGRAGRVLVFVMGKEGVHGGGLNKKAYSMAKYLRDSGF
# [4] = target: T4, HeLa cell extract proteins (Homo sapiens, UniProt P36542)
# T4 construct: endogenous in cells; host or cells: HeLa cell extract
# T4 sequence (P36542 26-298): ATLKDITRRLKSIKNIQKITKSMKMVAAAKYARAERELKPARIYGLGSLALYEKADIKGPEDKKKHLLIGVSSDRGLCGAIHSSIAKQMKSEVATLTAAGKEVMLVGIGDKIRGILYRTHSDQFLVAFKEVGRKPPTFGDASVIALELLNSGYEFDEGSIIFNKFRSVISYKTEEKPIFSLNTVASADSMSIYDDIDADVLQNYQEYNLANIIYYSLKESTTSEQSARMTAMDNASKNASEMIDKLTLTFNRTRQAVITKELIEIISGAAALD
# [5] = target: T5, HeLa cell extract proteins (Homo sapiens, UniProt P49368)
# T5 construct: endogenous in cells; host or cells: HeLa cell extract
# T5 sequence (P49368 1-545): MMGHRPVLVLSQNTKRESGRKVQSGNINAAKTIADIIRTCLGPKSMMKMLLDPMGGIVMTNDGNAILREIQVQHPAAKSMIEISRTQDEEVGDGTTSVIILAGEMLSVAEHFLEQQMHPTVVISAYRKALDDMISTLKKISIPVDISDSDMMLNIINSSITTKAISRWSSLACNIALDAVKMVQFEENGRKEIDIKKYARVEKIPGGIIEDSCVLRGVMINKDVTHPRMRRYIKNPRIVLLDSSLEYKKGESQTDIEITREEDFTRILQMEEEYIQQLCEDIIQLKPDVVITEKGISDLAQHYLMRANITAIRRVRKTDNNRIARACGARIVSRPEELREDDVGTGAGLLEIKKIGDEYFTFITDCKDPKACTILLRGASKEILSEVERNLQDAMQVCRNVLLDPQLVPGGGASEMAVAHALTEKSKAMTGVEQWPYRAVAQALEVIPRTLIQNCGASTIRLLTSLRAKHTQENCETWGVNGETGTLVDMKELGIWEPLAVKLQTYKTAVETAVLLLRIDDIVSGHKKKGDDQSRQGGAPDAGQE
# [6] = target: T6, HeLa cell extract proteins (Homo sapiens, UniProt P51858)
# T6 construct: endogenous in cells; host or cells: HeLa cell extract
# T6 sequence (P51858 whole entry): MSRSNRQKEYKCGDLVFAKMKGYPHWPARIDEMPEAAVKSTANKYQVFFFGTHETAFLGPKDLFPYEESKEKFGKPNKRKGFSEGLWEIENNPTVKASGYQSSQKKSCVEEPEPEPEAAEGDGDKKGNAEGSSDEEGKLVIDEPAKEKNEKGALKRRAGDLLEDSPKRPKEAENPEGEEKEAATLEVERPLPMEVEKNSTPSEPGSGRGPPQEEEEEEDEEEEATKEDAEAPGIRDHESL
# [7] = target: T7, HeLa cell extract proteins (Homo sapiens, UniProt Q02218)
# T7 construct: endogenous in cells; host or cells: HeLa cell extract
# T7 sequence (Q02218 41-1023): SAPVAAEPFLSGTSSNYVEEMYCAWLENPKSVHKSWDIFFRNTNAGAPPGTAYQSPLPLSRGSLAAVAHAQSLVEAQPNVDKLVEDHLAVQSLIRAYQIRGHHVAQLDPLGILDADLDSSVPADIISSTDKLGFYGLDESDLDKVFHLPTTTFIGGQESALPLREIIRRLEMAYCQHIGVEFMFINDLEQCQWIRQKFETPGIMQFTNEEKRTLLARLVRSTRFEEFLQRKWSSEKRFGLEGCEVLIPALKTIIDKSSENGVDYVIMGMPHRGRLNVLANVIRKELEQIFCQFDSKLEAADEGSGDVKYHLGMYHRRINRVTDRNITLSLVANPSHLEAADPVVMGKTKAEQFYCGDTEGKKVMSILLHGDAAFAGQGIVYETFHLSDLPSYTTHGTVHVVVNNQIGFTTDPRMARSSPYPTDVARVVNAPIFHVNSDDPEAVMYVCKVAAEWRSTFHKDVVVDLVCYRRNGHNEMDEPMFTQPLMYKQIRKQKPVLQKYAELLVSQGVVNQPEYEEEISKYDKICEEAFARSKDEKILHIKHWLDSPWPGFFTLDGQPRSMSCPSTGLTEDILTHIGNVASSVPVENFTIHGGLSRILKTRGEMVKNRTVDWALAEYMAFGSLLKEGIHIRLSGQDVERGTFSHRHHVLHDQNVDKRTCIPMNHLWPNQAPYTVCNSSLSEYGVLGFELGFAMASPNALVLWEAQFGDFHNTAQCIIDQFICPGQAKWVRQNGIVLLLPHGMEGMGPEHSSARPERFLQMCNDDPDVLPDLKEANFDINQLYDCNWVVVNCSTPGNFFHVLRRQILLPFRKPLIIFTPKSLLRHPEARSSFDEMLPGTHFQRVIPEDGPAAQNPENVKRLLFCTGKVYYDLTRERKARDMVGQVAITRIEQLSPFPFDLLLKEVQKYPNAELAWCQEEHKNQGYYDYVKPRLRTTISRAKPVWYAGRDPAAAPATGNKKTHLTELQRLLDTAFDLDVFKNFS
Structure (SMILES),"fold changes relative to vehicle control ([1]; protein UGDH, HeLa)","fold changes relative to vehicle control ([2]; HeLa, protein PSMG1)","fold changes relative to vehicle control ([3]; protein PFN2, HeLa)","fold changes relative to vehicle control ([4]; HeLa, protein ATP5C1)","fold changes relative to vehicle control ([5]; protein CCT3, HeLa)","fold changes relative to vehicle control ([6]; protein HDGF, HeLa)","fold changes relative to vehicle control ([7]; protein OGDH, HeLa)","fold changes relative to vehicle control ([1]; HeLa, protein UGDH)","fold changes relative to vehicle control ([2]; HeLa, captured protein PSMG1)","fold changes relative to vehicle control ([3]; HeLa, protein PFN2)","fold changes relative to vehicle control ([4]; HeLa, captured protein ATP5C1)","fold changes relative to vehicle control ([6]; HeLa, protein HDGF)","fold changes relative to vehicle control ([7]; HeLa, captured protein OGDH)",fold changes relative to vehicle control [1],fold changes relative to vehicle control [2],fold changes relative to vehicle control [3],fold changes relative to vehicle control [4],fold changes relative to vehicle control [5],fold changes relative to vehicle control [6],fold changes relative to vehicle control [7]
Nc1nc2cccc(-c3ccccc3)c2n1Cc1ccc(Cl)c(Cl)c1 [compound 3],0.78,1.03,1.1,0.89,1.06,0.9,1.03,,,,,,,,,,,,,
CCCCCCOc1ccc(Cc2cnc(N)nc2N)cc1 [compound 1],1.13,0.9,1.23,1.05,1.22,1.26,1.05,,,,,,,,,,,,,
NCCCNc1ccc(C(=O)NC(CCC(=O)O)C(=O)O)cc1 (stereo not shown) [compound 7],,,,,1,,,0.9,0.98,1.15,0.99,0.97,1.04,,,,,,,
CCCCCCOc1cccc(Cc2cnc(N)nc2N)c1 [compound 2],1.76,0.91,0.99,0.9,1.72,2.45,1.26,,,,,,,,,,,,,
NCCOCCOCC(=O)Nc1nc2ncc(CNc3ccc(C(=O)NC(CCC(=O)O)C(=O)O)cc3)nc2c(=O)[nH]1 (stereo not shown) [compound 6],,,,,1.16,,,1.41,0.76,1.06,0.97,1.31,1.02,,,,,,,
"Nc1nc2[nH]cc(CCc3ccc(C(=O)N[C@@H](CCC(=O)O)C(=O)O)cc3)c2c(=O)[nH]1 [PTX, pemetrexed]",,,,,,,,,,,,,,1.21,0.81,1.01,1.01,1,1.21,0.9
"Nc1nc2c(c(=O)[nH]1)N(C=O)C(CNc1ccc(C(=O)N[C@@H](CCC(=O)O)C(=O)O)cc1)CN2 (stereo partly shown) [LEU, leucovorin]",,,,,0.88,,,1.16,0.9,1.07,0.99,1.06,1.13,,,,,,,
